Test results taken from ChEMBL document CHEMBL1146488, “Antineoplastic agents. 511. Direct phosphorylation of phenpanstatin and pancratistatin” (J Nat Prod, 2004).
In brackets after ≈: the same amount, converted by molar mass.

What was measured:
P388 = assay: Cytotoxicity against mouse P388 cells; format: functional; settings: read-out: ED50 (the source's name)
SF-268 = assay: Cytotoxicity against human SF268 cells; format: functional
DU-145 = assay: Cytotoxicity against human DU145 cells; format: functional
MCF7 = assay: Cytotoxicity against human MCF7 cells; format: functional
KM-20L2 = assay: Cytotoxicity against human KM20L2 cells; format: functional
NCI-H460 = assay: Cytotoxicity against human NCI-H460 cells; format: functional
BXPC-3 = assay: Cytotoxicity against human BxPC3 cells; format: functional
[1] = Solubility in water; format: physicochemical

Structure (SMILES) | EC50 (P388) [µg/mL] | GI50 (SF-268) [µg/mL] | GI50 (DU-145) [µg/mL] | GI50 (MCF7) [µg/mL] | GI50 (KM-20L2) [µg/mL] | GI50 (NCI-H460) [µg/mL] | GI50 (BXPC-3) [µg/mL] | solubility [1] [µg/mL]
O=C1N[C@H]2[C@@H]3OP(=O)([O-])O[C@@H]3[C@@H](O)[C@H](O)[C@@H]2c2cc3c(c(O)c21)OCO3.[Na+] | 3.33 | 2.9 | 2.3 | 2.9 | 3.7 | 3.8 | 3.3 | –
C=C[C@H]1CN2CC[C@H]1C[C@H]2[C@H](O)c1ccnc2ccc(OC)cc12.O=C1N[C@H]2[C@H](OP(=O)(O)O)[C@H](O)[C@@H](O)[C@H](O)[C@@H]2c2cc3c(c(O)c21)OCO3 | 0.066 | 0.28 | 0.15 | 0.35 | 0.22 | 0.31 | 0.23 | –
O=C1N[C@H]2[C@H](OP(=O)([O-])[O-])[C@H](O)[C@@H](O)[C@H](O)[C@@H]2c2cc3c(c(O)c21)OCO3.[Mg+2] | 0.02 | 0.36 | 0.22 | 0.44 | 0.36 | 0.42 | 0.4 | –
O=C1N[C@H]2[C@H](OP(=O)([O-])[O-])[C@H](O)[C@@H](O)[C@H](O)[C@@H]2c2cc3c(c(O)c21)OCO3.[Zn+2] | 0.17 | 0.38 | 0.17 | 0.47 | 0.3 | 0.42 | 0.27 | –
O=C1N[C@H]2[C@H](OP(=O)([O-])O)[C@H](O)[C@@H](O)[C@H](O)[C@@H]2c2cc3c(c(O)c21)OCO3.[K+] | 0.025 | 0.39 | 0.22 | 0.46 | 0.3 | 0.4 | 0.45 | –
C1CNCCN1.O=C1N[C@H]2[C@H](OP(=O)(O)O)[C@H](O)[C@@H](O)[C@H](O)[C@@H]2c2cc3c(c(O)c21)OCO3 | 0.019 | 0.27 | 0.21 | 0.38 | 0.24 | 0.35 | 0.31 | –
C1COCCN1.O=C1N[C@H]2[C@H](OP(=O)(O)O)[C@H](O)[C@@H](O)[C@H](O)[C@@H]2c2cc3c(c(O)c21)OCO3 | 0.27 | 0.38 | 0.18 | 0.4 | 0.37 | 0.46 | 0.29 | –
O=C1N[C@H]2[C@H](OP(=O)(O)O)[C@H](O)[C@@H](O)[C@H](O)[C@@H]2c2cc3c(c(O)c21)OCO3.c1c[nH]cn1 | 0.063 | 0.21 | 0.13 | 0.33 | 0.13 | 0.25 | 0.25 | –
O=C1N[C@H]2[C@H](O)[C@H](O)[C@@H](O)[C@H](O)[C@@H]2c2cc3c(c(OP(=O)([O-])[O-])c21)OCO3.[Na+].[Na+] | 0.24 | 0.079 | 0.026 | 0.2 | 0.17 | 0.19 | 0.2 | 20
O=C1N[C@H]2[C@H](OP(=O)([O-])O)[C@H](O)[C@@H](O)[C@H](O)[C@@H]2c2cc3c(c(O)c21)OCO3.[Na+] | 0.018 | 0.12 | 0.94 | 0.18 | 0.24 | 0.38 | 0.18 | –
O=C1N[C@H]2[C@H](OP(=O)([O-])O)[C@H](O)[C@@H](O)[C@H](O)[C@@H]2c2cc3c(c(O)c21)OCO3.[Li+] | 0.036 | 0.28 | 0.2 | 0.39 | 0.25 | 0.35 | 0.3 | –
C=C[C@H]1CN2CC[C@H]1C[C@@H]2[C@@H](O)c1ccnc2ccc(OC)cc12.O=C1N[C@H]2[C@H](OP(=O)(O)O)[C@H](O)[C@@H](O)[C@H](O)[C@@H]2c2cc3c(c(O)c21)OCO3 | 0.21 | 0.27 | 0.2 | 0.38 | 0.23 | 0.36 | 0.34 | –
O=C1N[C@H]2[C@H](OP(=O)([O-])[O-])[C@H](O)[C@@H](O)[C@H](O)[C@@H]2c2cc3c(c(O)c21)OCO3.[Ca+2] | 0.21 | 0.26 | 0.12 | 0.36 | 0.23 | 0.27 | 0.25 | –
O=C(O[C@H]1[C@H](O)[C@H]2OP(=O)([O-])O[C@H]2[C@@H]2NC(=O)c3c(cc4c(c3O)OCO4)[C@H]21)c1ccccc1.[Na+] | 0.061 | 0.17 | 0.13 | 0.041 | 0.13 | 0.029 | 0.25 | –
O=C1N[C@H]2[C@H](OP(=O)(O)O)[C@H](O)[C@@H](O)[C@H](O)[C@@H]2c2cc3c(c(O)c21)OCO3 | 0.047 (≈ 0.116 µM) | 0.35 (≈ 0.864 µM) | 0.2 (≈ 0.494 µM) | 0.43 (≈ 1.06 µM) | 0.33 (≈ 0.814 µM) | 0.42 (≈ 1.04 µM) | 0.36 (≈ 0.888 µM) | –
O=C1N[C@@H]2C(=C[C@H](O)[C@@H](O)[C@H]2O)c2cc3c(c(O)c21)OCO3 [NARCICLASINE] | 0.013 (≈ 0.0423 µM) | 0.0031 (≈ 0.0101 µM) | 0.0032 (≈ 0.0104 µM) | 0.0032 (≈ 0.0104 µM) | 0.0032 (≈ 0.0104 µM) | 0.0084 (≈ 0.0273 µM) | 0.0035 (≈ 0.0114 µM) | –
O=C1N[C@H]2[C@H](O)[C@H](O)[C@@H](O)[C@H](O)[C@@H]2c2cc3c(c(O)c21)OCO3 [PANCRATISTATIN] | 0.017 (≈ 0.0523 µM) | 0.014 (≈ 0.043 µM) | 0.015 (≈ 0.0461 µM) | 0.023 (≈ 0.0707 µM) | 0.025 (≈ 0.0769 µM) | 0.032 (≈ 0.0984 µM) | 0.02 (≈ 0.0615 µM) | 53 (≈ 163 µM)
O=C(O[C@H]1[C@H](O)[C@@H](O)[C@@H](O)[C@@H]2NC(=O)c3c(cc4c(c3O)OCO4)[C@H]21)c1ccccc1 [PHENPANSTATIN] | 0.0016 (≈ 0.00373 µM) | 0.00055 (≈ 0.00128 µM) | 0.00021 (≈ 0.000489 µM) | 0.00031 (≈ 0.000722 µM) | 0.00037 (≈ 0.000862 µM) | 0.0001 (≈ 0.000233 µM) | 0.0019 (≈ 0.00442 µM) | –
O=C1N[C@@H]2C(=C[C@H](O)[C@H]3OP(=O)([O-])O[C@H]32)c2cc3c(c(O)c21)OCO3.[Na+] [SODIUM NARCISTATIN] | 0.012 | 0.047 | 0.031 | 0.059 | 0.06 | 0.058 | 0.069 | –
